Measured values as given in patent US20240156800A1, “EP300 DEGRADER AND USES THEREOF IN NEUROBLASTOMA” (DANA-FARBER CANCER INSTITUTE, INC., priority 2021, published 2024).

Tests used:
[1] = system: 557 cancer cell lines; experiment: PRISM pooled barcoded 5-day cell viability screen; type: cell-based, human
Experimental: PRISM barcoded pooled screening was performed using JQAD1 in 578 barcoded cell lines as described in Corsello et al. Nat. Med. 23:405-8 (2017) and Corsello et al. Nat Cancer 1:235-48 (2020). Some cell lines included in the screen were genetically engineered to express exogenous genes, and these cell lines were removed to yield 557 cell lines. Briefly, cells in pools of 20-25 were thawed and plated into 384-well plates (1250 cells/well for adherent cell pools, 2000 cells/well for suspension or mixed suspension/adherent cell pools) containing compound (top concentration: 10 μM, 8-point, threefold dilution). All conditions were tested in triplicate. Cells were lysed after 5 days of treatment and mRNA-based Luminex® detection of barcode abundance from lysates was carried out as described in Corsello et al. Cancer 1:235-48 (2020). Luminex median fluorescence intensity (MFI) data was input to a standardized R pipeline to generate viability estimates relative to vehicle treatment for each cell line and treatment condition, and to fit dose-response curves from viability data.

[2] = system: Kelly, NGP and SIMA NB cells; experiment: Cell Titer-Glo cell viability / growth assay; type: cell-based, human; conditions: 6 days, compared with (S,S) stereoisomer and A485
Experimental: Cells were infected with lentiviruses encoding sgRNAs or treated with compounds as described. Colony assays were performed by replating cells at 500 cells per well in 6-well dishes and grown in regular growth media for 10 d before 100% methanol fixation, 0.05% crystal violet staining, and quantitation. Experiments were completed in triplicate; data shown are the average of three independent experiments. Cell Titer-Glo® assay was performed as per the manufacturer's instructions (Promega®). Briefly, 1000 cells/well were plated into 96-well plates and treated with a range of compound dosing. Cell viability was measured at the noted time points based on luminescence by the Cell Titer-Glo® assay (Promega®) and read on an Envision 2104 (PerkinElmer®, USA) according to the manufacturer's protocol.

[3] = molecular target: T1, EP300, CRBN and CBP in Kelly cell lysates (Homo sapiens, UniProt Q09472+Q96SW2); experiment: Biotin-JQAD1 pulldown from Kelly cell lysates (streptavidin purification, western blotting); type: binding; conditions: Kelly cell lysates co-treated with excess pomalidomide
T1 construct: added to 500 μg of whole Kelly cell lysate; endogenous in cells; host or cells: Kelly neuroblastoma cells (whole cell lysate)
Experimental: Biotin-JQAD1, synthesized below, was added to 500 μg of whole Kelly cell lysate prepared in immunoprecipitation (IP) lysis buffer (Pierce™ Biotechnology), and incubated for 16 h at 4° C. with end-over-end mixing. One hundred μL of high-capacity streptavidin agarose resin (Pierce™ Biotechnology) was packed into a 1.5 mL Eppendorf tube®, washed three times with cold PBS, prior to addition of cell lysate. Lysate was incubated at room temperature for 10 minutes prior to centrifugation and washing, followed by elution in NuPAGE™ LDS sample buffer with reducing agent (Thermo-Fisher Scientific). Samples were processed by sodium dodecyl sulphate-polyacrylamide gel electrophoresis (SDS-PAGE) as above and blotted using anti-EP300, anti-CRBN, or anti-CBP antibodies.

[4] = system: pro- and anti-apoptotic mRNA transcripts; experiment: ERCC spike-in RNA-seq of treated Kelly cells; type: cell-based, human; conditions: 500 nM, 24 h
Experimental: For in vitro analyses, total RNA was extracted from control […] or JQAD1 treated Kelly cells using TRIzolTM reagent (Ambion). Prior to extraction, exogenous spike-in of synthetic External RNA Control Consortium (ERCC) RNA controls were added based on cell number (Ambion). Samples were treated with RNAse-free DNAse I and spin purified using the Qiagen® RNeasy Kit (Qiagen®). Purified RNA samples were subjected to library construction with poly-adenylation preparation and sequencing using the Illumina NextSeq® 500 (paired end, 75bp reads). RNA-seq reads were aligned to a reference index containing the sequences of the hg19 revision of the human reference genome and the ERCC spike-in probes using hisat 2.1.0. Expression was quantified using sorted BAMs, a gene reference built using ERCC sizes and RefSeq genes downloaded Jul. 15, 2017, and htseq-count with parameters -I gene_id- stranded=reverse -f bam -m intersection-strict. Read counts were converted to transcripts per million (TPM) and used for cell number-normalization. The expression of all RefSeq genes and ERCC probes was floored at 0.01 and a pseudocount of 0.1 was added to all entries. Values were normalized by equilibrating the expression of the ERCC probes among experiments using normalize.loess from the affy R package. The ERCC-normalized expression of each gene after 24 h of either […] or JQAD1 treatment was compared against its expression in dimethyl sulfoxide (DMSO) treated samples to create two-fold changes.

[5] = system: H3K27ac; experiment: Western blotting of H3K27ac in treated NB cells; type: cell-based, human; conditions: Kelly cells, 24 h
Experimental: Cells growing in culture were lysed for whole cell lysates as described in Durbin et al. Nat. Genet. 50:1240-1246 (2018) and Wang et al. Nat. Commun. 10:5622 (2019). Nuclear lysates were prepared using the NE-PER® nuclear lysate kit (Thermo Scientific™) according to the manufacturer's protocol. Chromatin lysates were prepared with the total histone extraction kit (Epigentek). Briefly, equivalent amounts of protein were resolved by western blotting using 4-12% Bis-Tris NuPAGE™ gels (Thermo-Fisher Scientific) prior to transfer, and immunoblotting using primary antibodies to: MYCN (1:1000, Cell Signaling Technology®), H3K27ac (1:1000, Abcam), total H3 (1:1000, Cell Signaling Technology®), EP300 (1:1000, Abcam), CBP (1:500, Cell Signaling Technology®), Cas9 (1:1000, Cell Signaling Technology®), cleaved-PARP1 (1:1000, Cell Signaling Technology), cleaved Caspase-3 (1:1000, Cell Signaling Technology®), β-actin (1:1000, Cell Signaling Technology®), GATA3 (1:1000, EMD Millipore™), TFAP2β (1:1000, Cell Signaling Technology®), Vinculin (1:1000, EMD Millipore™), CRBN (1:1000, Cell Signaling Technology®), HAND2 (1:1000, Santa Cruz Biotechnology). Secondary antibodies were horseradish peroxidase (HRP)-conjugated anti-rabbit or anti-mouse (1:5000, Santa Cruz Biotechnology), incubated prior to exposure to enhanced chemiluminescence reagents (GE, Amersham). For immunoprecipitation, equal amounts of protein were diluted in buffer C as described in Mansour et al. Science 346:1373-1377 (2014) and incubated with antibodies covalently conjugated to Dynabeads™ M-270 beads (Thermo-Fisher Scientific) overnight according to the manufacturer's directions. Antibodies used included: H3K27ac, EP300 (Abcam), CBP, TFAP2β (Cell Signaling Technology®), rabbit immunoglobulin G (IgG) (Santa Cruz Biotechnology®). Immunoprecipitated protein was isolated as per the manufacturer's directions and subjected to western blotting, as described above, or mass spectrometry.

T1 sequence (Q09472 2-2414 limits assumed): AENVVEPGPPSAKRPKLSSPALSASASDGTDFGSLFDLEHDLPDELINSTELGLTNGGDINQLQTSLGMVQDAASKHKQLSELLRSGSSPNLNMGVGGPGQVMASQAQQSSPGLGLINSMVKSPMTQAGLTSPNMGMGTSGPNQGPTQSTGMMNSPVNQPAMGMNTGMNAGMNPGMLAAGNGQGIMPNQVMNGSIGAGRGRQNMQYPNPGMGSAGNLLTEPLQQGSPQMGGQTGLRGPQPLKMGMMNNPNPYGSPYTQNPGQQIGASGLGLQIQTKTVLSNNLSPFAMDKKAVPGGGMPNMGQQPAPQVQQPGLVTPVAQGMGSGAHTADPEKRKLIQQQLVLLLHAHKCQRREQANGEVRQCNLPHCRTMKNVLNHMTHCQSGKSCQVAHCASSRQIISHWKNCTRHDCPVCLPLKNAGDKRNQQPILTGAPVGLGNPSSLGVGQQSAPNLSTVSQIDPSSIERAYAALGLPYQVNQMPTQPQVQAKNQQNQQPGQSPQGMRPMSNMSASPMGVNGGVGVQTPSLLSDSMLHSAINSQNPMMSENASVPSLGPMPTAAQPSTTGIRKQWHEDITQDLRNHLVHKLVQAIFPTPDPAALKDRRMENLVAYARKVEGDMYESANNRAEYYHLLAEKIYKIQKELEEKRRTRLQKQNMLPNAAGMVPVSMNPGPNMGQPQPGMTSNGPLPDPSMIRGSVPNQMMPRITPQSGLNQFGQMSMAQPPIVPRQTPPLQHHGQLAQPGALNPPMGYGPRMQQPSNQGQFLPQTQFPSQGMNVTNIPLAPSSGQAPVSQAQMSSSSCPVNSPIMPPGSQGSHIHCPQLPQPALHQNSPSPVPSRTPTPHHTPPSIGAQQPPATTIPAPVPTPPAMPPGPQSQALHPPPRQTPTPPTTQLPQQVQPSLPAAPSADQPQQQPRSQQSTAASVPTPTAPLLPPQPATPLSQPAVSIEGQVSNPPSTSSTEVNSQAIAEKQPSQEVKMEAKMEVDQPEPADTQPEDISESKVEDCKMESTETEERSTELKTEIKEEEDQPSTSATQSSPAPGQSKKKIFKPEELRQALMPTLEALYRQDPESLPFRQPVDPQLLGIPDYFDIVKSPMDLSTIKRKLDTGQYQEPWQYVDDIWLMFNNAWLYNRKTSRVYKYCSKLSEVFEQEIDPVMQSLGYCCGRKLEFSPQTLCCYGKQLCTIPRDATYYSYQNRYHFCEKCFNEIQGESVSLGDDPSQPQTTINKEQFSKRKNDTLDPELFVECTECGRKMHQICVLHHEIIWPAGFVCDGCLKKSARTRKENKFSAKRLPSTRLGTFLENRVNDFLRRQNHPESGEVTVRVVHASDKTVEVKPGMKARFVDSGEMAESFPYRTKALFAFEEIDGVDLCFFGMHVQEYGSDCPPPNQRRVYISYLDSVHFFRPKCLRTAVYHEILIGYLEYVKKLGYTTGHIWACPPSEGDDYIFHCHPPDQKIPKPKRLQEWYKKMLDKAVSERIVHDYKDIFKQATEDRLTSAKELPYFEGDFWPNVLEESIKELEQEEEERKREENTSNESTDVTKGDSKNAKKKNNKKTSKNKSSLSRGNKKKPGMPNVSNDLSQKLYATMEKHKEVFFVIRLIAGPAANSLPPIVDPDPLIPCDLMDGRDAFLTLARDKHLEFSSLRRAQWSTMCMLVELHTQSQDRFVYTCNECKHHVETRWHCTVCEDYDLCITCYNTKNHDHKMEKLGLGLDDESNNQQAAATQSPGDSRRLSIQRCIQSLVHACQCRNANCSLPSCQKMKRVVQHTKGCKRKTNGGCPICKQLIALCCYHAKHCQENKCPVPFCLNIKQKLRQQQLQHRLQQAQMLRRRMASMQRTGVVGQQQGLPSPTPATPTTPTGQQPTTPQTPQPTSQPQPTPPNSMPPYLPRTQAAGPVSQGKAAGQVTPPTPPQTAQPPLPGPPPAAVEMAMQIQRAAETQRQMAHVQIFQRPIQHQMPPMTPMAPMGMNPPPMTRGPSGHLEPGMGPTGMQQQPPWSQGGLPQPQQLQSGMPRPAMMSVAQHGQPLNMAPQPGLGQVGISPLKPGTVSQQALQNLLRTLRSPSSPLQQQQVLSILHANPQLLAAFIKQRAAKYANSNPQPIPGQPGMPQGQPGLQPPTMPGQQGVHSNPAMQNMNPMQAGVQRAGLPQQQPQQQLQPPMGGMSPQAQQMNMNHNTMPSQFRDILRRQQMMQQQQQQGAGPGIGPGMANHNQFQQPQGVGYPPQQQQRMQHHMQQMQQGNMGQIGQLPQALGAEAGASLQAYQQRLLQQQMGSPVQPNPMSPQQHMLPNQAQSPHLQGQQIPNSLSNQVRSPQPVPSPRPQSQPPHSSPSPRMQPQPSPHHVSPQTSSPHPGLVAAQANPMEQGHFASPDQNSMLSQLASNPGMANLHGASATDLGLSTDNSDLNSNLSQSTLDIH
T1 sequence (Q96SW2 whole entry): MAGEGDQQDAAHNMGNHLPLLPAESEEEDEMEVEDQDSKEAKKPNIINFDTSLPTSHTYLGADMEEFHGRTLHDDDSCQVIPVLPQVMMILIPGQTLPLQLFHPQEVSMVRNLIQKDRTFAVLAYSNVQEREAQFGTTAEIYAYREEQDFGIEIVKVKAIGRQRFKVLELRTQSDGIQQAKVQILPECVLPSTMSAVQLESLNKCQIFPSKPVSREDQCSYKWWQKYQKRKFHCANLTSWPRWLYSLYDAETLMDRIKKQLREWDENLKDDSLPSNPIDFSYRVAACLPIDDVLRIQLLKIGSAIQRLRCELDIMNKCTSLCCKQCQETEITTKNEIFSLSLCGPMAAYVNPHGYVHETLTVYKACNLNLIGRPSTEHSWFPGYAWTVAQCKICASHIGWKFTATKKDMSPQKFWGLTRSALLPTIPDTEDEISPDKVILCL
T1 sequence (Q16531 whole entry partner): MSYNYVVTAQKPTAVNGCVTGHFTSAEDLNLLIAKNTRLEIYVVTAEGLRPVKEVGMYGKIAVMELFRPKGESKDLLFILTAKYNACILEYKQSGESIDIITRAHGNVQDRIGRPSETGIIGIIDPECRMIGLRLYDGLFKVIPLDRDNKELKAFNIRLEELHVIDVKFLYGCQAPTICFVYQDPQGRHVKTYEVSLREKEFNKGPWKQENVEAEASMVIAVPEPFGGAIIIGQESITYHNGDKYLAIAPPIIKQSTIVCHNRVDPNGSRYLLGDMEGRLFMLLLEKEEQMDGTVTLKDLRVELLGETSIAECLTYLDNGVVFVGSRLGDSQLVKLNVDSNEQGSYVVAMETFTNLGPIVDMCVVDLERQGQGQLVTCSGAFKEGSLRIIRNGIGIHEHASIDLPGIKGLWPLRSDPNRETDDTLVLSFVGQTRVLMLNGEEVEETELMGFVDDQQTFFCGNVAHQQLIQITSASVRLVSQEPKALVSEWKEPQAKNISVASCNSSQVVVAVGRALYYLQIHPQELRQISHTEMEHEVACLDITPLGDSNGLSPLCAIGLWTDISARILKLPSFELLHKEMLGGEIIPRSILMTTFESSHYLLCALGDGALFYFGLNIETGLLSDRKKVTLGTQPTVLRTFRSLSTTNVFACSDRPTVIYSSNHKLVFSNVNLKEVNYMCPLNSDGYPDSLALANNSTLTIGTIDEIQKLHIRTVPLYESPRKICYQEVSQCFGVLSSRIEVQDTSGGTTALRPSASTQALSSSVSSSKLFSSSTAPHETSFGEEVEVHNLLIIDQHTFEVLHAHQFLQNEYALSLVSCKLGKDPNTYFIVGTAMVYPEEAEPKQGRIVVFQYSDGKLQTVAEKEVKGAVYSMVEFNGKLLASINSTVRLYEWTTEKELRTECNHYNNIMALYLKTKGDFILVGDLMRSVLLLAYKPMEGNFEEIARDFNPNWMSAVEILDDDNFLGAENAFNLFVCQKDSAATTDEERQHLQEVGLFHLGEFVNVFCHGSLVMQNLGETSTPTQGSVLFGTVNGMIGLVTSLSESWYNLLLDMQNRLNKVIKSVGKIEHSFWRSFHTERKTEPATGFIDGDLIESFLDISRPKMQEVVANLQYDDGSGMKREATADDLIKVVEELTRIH

C[C@H](N(Cc1ccc(F)cc1)C(=O)CN1C(=O)O[C@@]2(CCc3cc(NC(=O)CCCCCCCCCCCNc4ccc5c(c4)C(=O)N(C4CCC(=O)NC4=O)C5=O)ccc32)C1=O)C(F)(F)F (stereo partly drawn) [JQAD1, 12-((2-(2,6-dioxopiperidin-3-yl)-1,3-dioxoisoindolin-5-yl)amino)-N-((R)-3′-(2-((4-fluorobenzyl)((S)-1,1,1-trifluoropropan-2-yl)amino)-2-oxoethyl)-2′,4′-dioxo-2,3-dihydrospiro[indene-1,5′-oxazolidin]-5-yl)dodecanamide]
antineoplastic activity ([1]; 5 days, 557 cancer cell lines): antineoplastic activity across multiple tumor lineages | area under the curve (AUC) of the dose-response in growth-inhibited cell lines ([1]; 5 days, top concentration 10 μM, some example cell lines within the majority of tumor lineages): < 0.85 | relation of CRBN expression to AUC of the dose-response ([1]; CRBN expression from CCLE): higher expression levels of CRBN were correlated with higher JQAD1-mediated antineoplastic activity | IC50 in intact NB cells (comparison) [2]: lowest IC50 concentration | effect of excess pomalidomide on the interaction [3]: partial loss of the interaction between JQAD1, CRBN, and EP300 | transcript levels of BIM, BID, PUMA, BAX, BCL2 and MCL1 [4]: upregulation | gene set enrichment analysis, hallmark gene sets ([4]; JQAD1 versus A485): enrichment of the apoptosis hallmark gene set | H3K27ac modification [5]: parallel loss of the H3K27ac modification | H3K27ac modification ([5]; listed as (R,S)-JQAD1): suppressed both H3K27ac and EP300 expression levels
